The text below walks through data of PMC10740831, “Synthesis, Hydrolytic Stability and In Vivo Biological Study of Bioconjugates of the Tetrapeptides FELL Containing Pyrrole Moiety” (Biomedicines, 2023).

For assay [1], the system named is male Wistar rats. As to the kind of experiment: Nociceptive Paw Pressure test (Randall–Selitto test), analgesic activity. It is filed as in vivo, rat. The following applies: 0.25 mg/kg i.p.; for course of analgesic activity over time (in words) / analgesic activity (paw pressure thresholds): Figure 6; for analgesic activity (paw pressure thresholds): male Wistar rats, 8–10 per group, measured every 10 min from 10th to 50th min; for highest analgesic activity reached, as percent of that of the parent acid: BB20A vs acid A, BB19B vs acid B. The method, then: The male Wistar rats (180–200 g) were used for all experiments. All animals were kept at around 22 °C and under normal conditions. The experimental procedures are realized in the interval 10:00 a.m. to 1:00 p.m. and are approved by the Research Ethics Commission of the Medical University-Sofia.
(§1) Several groups of experimental animals were used. Each group contains 8–10 rats: • The control group receives 0.2 mL of saline intraperitoneally injected (i.p.); • Six experimental groups receiving one of the 6 tested substances (0.25 mg/kg, i.p.)—pyrrole acid A, pyrrole acid B, BB19A, BB19B, BB20A, and BB20B; • Four experimental groups receiving Naloxone (1 mg/kg, i.p.) before the administration of the newly synthesized bioconjugates BB19A, BB19B, BB20A, and BB20B; • Four experimental groups receiving AM251 (1.25 mg/kg, i.p.) before the administration of the newly synthesized bioconjugates BB19A, BB19B, BB20A, and BB20B.
(§2) An analgesiometer was used to measure the specific changes in the mechanical nociceptive thresholds (PPT) of experimental animals). A pressure was applied to the hind-paw and the value (g) required to elicit a nociceptive response (such as squeak or struggle) was taken as the mechanical nociceptive threshold. A cut-off value of 500 g was used to prevent damage of the paw. The targeted compounds were administrated and further nociception was evaluated each 10 min from the 10th min until the 50th min.
(§3) The results were statistically assessed by one-way analysis of variance followed by Newman-Keuls post hoc comparison test. One-Way ANOVA has been used to analyze the data. Values are represented in arbitrary units (AU) according to the scale, as mean ± S.E.M. Values of p < 0.05 were considered to indicate statistical significance.

Assay [2] deals with opioid receptor. In words: Paw pressure test after Naloxone pretreatment. It is filed as in vivo, rat. The note with it: Naloxone 1 mg/kg i.p. before bioconjugate 0.25 mg/kg i.p.; compared with no pretreatment; Figure 7. The protocol:
as §1
(§4) Pretreatments with the non-selective opioid receptor antagonist Naloxone or the cannabinoid receptor antagonist AM251 were performed in order to estimate the types of receptors engaged in the effects observed—respectively, the opioid or the cannabinoid receptor [35].
as §2, §3

Assay [3] has as its system cannabinoid receptor. In words: Paw pressure test after AM251 pretreatment. The note with it: AM251 1.25 mg/kg i.p. before bioconjugate 0.25 mg/kg i.p.; for time points with paradoxically higher analgesia after AM251 pretreatment than without pretreatment: Figure 7. Type of assay: in vivo, rat. The method, then:
as §1, §4, §2, §3

For assay [4] the following is noted: previously evaluated in vivo; cited from earlier work. An excerpt:
Parent compound FELL (Phe-Glu-Leu-Leu-OH) and four analogs of the tetrapeptide were previously evaluated in vivo for their analgesic activity.

Assay [5] relates to white blood cell accumulation in the bronchoalveolar fluid. The following applies: cited from earlier work. From the text: In this context, tetrapeptide sequence H-FELL-OH is known from the literature as an anti-inflammatory agent.

Entries after “also recorded” stand apart in the source; their conditions may differ. Peptide text beside a SMILES is read from it. * marks the point of attachment. X1 = CCOC(=O)c1c(C)[nH]c(C(=O)*)c1C; X2 = CCOC(=O)c1[nH]c(C)c(C(=O)*)c1C

With `CCOC(=O)c1c(C)[nH]c(C(=O)N[C@@H](Cc2ccccc2)C(=O)N[C@@H](CCC(=O)O)C(=O)N[C@@H](CC(C)C)C(=O)N[C@@H](CC(C)C)C(N)=O)c1C` [BB19A, A-Phe-Glu-Leu-Leu-NH2] (X1-FELL-NH2), in assay [1] (10th to 50th min), the “course of analgesic activity over time (in words)” value (shortened to “course … over time (in words)”) was “biphasic activity”. Further, in assay [1] (50th min), the “analgesic activity on the 50th min compared with parent pyrrole acid” value is recorded as “exceeded the parent alpha acid”. In addition, the “analgesic activity (paw pressure thresholds)” value in assay [1] was “exhibited analgesic activity”. Besides, in assay [2], the “analgesic activity after opioid receptor blockade (Naloxone pretreatment), in words” value is “significant analgesia that even initially exceeded that of the substances without the pretreatment; also recorded: naloxone-independent in the first phase and naloxone-dependent in the second”. Moreover, the “time points with paradoxically higher analgesia after AM251 pretreatment than without pretreatment” value in assay [3] is 10th min.
For the compound `CCOC(=O)c1c(C)[nH]c(C(=O)N[C@@H](Cc2ccccc2)C(=O)N[C@@H](CCC(=O)O)C(=O)N[C@@H](CC(C)C)C(=O)N[C@@H](CC(C)C)C(=O)O)c1C` [BB20A, A-Phe-Glu-Leu-Leu-OH] (X1-FELL-OH), the “course … over time (in words)” value in assay [1] (10th to 50th min) is “decreased to control values”. In assay [1], the “analgesic activity (paw pressure thresholds)” value is on record as “exhibited analgesic activity” and the “highest analgesic activity reached, as percent of that of the parent acid” value is on record as “more than 87%”. Besides, the “analgesic activity after opioid receptor blockade (Naloxone pretreatment), in words” value in assay [2] is on record as “Opioid receptors appear to be involved”. For the same compound, in assay [3], the “involvement of cannabinoid receptors in the analgesic effect (AM251 pretreatment), in words” value was “they “turn on” at a later stage—after the 20th minute” and the “time points with paradoxically higher analgesia after AM251 pretreatment than without pretreatment” value is listed as 10th min.
Take `CCOC(=O)c1[nH]c(C)c(C(=O)N[C@@H](Cc2ccccc2)C(=O)N[C@@H](CCC(=O)O)C(=O)N[C@@H](CC(C)C)C(=O)N[C@@H](CC(C)C)C(=O)O)c1C` [BB20B, B-Phe-Glu-Leu-Leu-OH] (X2-FELL-OH): in assay [1], the “analgesic activity / PPTs on the 10th min compared with parent pyrrole acid” value is reported as “equivalent to the parent beta acid’s ones” and the “analgesic activity (paw pressure thresholds)” value was “exhibited analgesic activity”. The “course … over time (in words)” value in assay [1] (10th to 50th min) was “slowly decreased to control levels”. The “analgesic activity after opioid receptor blockade (Naloxone pretreatment), in words” value in assay [2] is recorded as “Opioid receptors appear to be involved”. Moreover, the “involvement of cannabinoid receptors in the analgesic effect (AM251 pretreatment), in words” value in assay [3] is “Cannabinoid receptors are also involved”.
For `CCOC(=O)c1c(C)[nH]c(C(=O)O)c1C` [acid A, 4-(Ethoxycarbonyl)-3,5-dimethyl-1H-pyrrole-2-carboxylic Acid], in assay [1], the “duration of short-lasting analgesic activity” value is given as “about 10 min”; the “time window of short-lasting analgesic activity” value was “between the 10th and 20th min”. Further, the “decrease of analgesic activity until the end of the estimated time” value in assay [1] (up to 50th min) is recorded as 56%.
As to `CCOC(=O)c1[nH]c(C)c(C(=O)O)c1C` [acid B, 5-(Ethoxycarbonyl)-2,4-dimethyl-1H-pyrrole-3-carboxylic Acid], in assay [1], the “duration of short-lasting analgesic activity” value is reported as “about 10 min”; the “time window of short-lasting analgesic activity” value is “between the 20th and 30th min”. The “PPTs on the 50th min compared with controls” value in assay [1] (50th min) is on record as “almost equivalent to the controls’”.
As to “B-Phe-Glu-Leu-Leu-NH2 [BB19B, bioconjugate of pyrrole acid B and tetrapeptide FELL-NH2]”, in assay [1], the “analgesic activity / PPTs on the 10th min compared with parent pyrrole acid” value is “more significant than the parent beta acid”; the “analgesic activity (paw pressure thresholds)” value is reported as “exhibited analgesic activity”; the “highest analgesic activity reached, as percent of that of the parent acid” value worked out at 64.4%. Besides, in assay [1] (10th to 50th min), the “variation of analgesic activity during the whole time of the experiment” value is “less than 7%” and the “course … over time (in words)” value is given as “sustained analgesic activity”. Besides, the “analgesic activity on the 50th min compared with parent pyrrole acid” value in assay [1] (50th min) is given as “more significant than the parent beta acid”. In addition, the “analgesic activity after opioid receptor blockade (Naloxone pretreatment), in words” value in assay [2] is “significant analgesia that even initially exceeded that of the substances without the pretreatment”. In addition, the “time points with paradoxically higher analgesia after AM251 pretreatment than without pretreatment” value in assay [3] was 10th, 20th, and 30th min.
On to “Phe-Glu-Leu-Leu-NH2 [C-terminal amide of the tetrapeptide FELL]”, for which, in assay [4], the “analgesic activity over time (in words)” value is “gradually increased analgesic activity with time”.
In the case of “Phe-Glu-Leu-Leu-OH [H-FELL-OH, parent tetrapeptide known as an anti-inflammatory agent]”, the “analgesic activity over time (in words)” value in assay [4] is reported as “constantly increasing analgesic activity for the total time of the evaluation”. In addition, the “reduction of the total number of white blood cell accumulation in the bronchoalveolar fluid in lungs” value in assay [5] is given as 51%.
